IC50 data for 31 compounds are collected here from US20230023559A1, “ARYLMETHYLENE HETEROCYCLIC COMPOUNDS AS KV1.3 POTASSIUM SHAKER CHANNEL BLOCKERS” (D. E. Shaw Research, LLC, priority 2019, published 2023).

Where only a bound is given, the exact number is not on record here.

In one assay the target is T1, Kv1.3 potassium channel (Homo sapiens, UniProt P22001).
T1 construct: expressed in transfected cells
Kind of assay: Kv1.3 potassium channel blocker activity, automated whole-cell patch clamp (Patchliner). The class given is cell-based. The conditions noted are these: CHO-K1 cells stably expressing Kv1.3; whole cell current inhibition; read-out: Kv1.3_IC50. The gist of the method:
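Peak-current block was recorded on stable Kv1.3 CHO-K1 cells by automated patch clamp, stepping from a −90 mV holding potential to +40 mV for 100 ms at 0.1 Hz with 10 s breaks between trains. Online P/4 leak subtraction, 10 kHz sampling; compound exposure under 10 s per train.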

The next assay has as its target hERG channel (Homo sapiens, UniProt Q12809). Kind of assay: hERG electrophysiology, automated whole-cell patch clamp (Patchliner). Background: The hERG channel carries a current that helps repolarise heart muscle cells.

Chain of hERG channel (Q12809 whole entry): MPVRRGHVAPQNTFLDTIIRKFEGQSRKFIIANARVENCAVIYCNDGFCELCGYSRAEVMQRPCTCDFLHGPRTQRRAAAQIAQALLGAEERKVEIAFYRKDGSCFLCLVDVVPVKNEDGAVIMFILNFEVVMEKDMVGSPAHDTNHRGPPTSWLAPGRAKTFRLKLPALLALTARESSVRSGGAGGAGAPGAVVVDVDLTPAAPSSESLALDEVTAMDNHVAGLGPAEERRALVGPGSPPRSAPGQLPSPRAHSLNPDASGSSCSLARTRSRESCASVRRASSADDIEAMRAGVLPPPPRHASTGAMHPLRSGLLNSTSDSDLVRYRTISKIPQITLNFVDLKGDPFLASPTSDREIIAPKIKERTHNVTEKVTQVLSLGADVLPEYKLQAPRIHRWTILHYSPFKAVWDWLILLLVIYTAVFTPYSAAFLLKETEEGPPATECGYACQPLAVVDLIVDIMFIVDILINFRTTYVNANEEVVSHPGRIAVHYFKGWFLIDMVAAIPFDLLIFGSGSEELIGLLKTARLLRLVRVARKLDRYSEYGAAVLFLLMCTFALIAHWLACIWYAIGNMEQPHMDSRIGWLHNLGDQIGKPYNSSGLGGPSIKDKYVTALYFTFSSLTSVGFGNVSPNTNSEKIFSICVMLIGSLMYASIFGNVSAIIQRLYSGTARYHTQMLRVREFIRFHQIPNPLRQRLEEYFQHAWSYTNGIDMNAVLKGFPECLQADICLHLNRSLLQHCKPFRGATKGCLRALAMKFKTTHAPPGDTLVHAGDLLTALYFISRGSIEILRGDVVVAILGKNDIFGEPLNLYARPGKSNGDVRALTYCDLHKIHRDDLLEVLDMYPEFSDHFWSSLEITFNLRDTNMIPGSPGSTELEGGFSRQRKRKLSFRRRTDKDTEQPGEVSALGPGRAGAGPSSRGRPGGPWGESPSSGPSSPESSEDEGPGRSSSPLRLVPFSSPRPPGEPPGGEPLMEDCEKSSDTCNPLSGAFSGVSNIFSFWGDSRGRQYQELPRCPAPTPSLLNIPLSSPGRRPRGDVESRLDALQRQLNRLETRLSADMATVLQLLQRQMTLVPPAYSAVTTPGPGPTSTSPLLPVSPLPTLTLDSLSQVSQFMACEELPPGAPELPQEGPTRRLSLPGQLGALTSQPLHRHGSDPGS
T1 sequence (P22001 whole entry): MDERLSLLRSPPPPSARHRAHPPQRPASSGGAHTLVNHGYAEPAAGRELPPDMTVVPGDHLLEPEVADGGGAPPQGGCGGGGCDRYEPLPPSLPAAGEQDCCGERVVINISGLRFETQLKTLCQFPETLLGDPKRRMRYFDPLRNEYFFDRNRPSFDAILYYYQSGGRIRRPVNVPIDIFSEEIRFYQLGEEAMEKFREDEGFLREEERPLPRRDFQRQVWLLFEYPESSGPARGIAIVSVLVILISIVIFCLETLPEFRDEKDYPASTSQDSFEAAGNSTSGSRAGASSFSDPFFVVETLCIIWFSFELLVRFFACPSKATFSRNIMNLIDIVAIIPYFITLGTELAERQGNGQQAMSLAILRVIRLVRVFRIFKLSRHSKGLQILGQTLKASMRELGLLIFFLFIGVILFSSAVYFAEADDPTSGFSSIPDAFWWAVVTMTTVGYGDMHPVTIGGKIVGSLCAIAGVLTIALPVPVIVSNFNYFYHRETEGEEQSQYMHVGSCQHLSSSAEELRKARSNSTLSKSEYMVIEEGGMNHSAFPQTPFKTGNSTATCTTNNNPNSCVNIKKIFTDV

The IC50 is the concentration that gives 50% inhibition. Take `Nc1ccc(N2CCC([C@@H](N)c3cc(Cl)c(Cl)cc3O)CC2)nc1` [Compound 147, (R)-2-(amino(1-(5-aminopyridin-2-yl)piperidin-4-yl)methyl)-4,5-dichlorophenol Trifluoroacetic Acid]: the concentration for half-maximal inhibition (IC50) is < 0.5 µM at Kv1.3 potassium channel and < 30 µM against hERG channel.
Regarding `C[C@H](N)C(=O)N1CCC(C(N)c2cc(Cl)c(Cl)cc2O)CC1` (stereo partly drawn) [Compound 50, (2S)-2-amino-1-(4-(amino(4,5-dichloro-2-hydroxyphenyl)methyl)piperidin-1-yl)propan-1-one trifluoroacetic acid], the IC50 at Kv1.3 potassium channel is < 0.5 µM; against hERG channel, > 30 µM.
As for `NC(c1cc(Cl)c(Cl)cc1O)C1CC2CCC(C1)N2` (centres unmarked) [Compound 42, 2-[amino(8-azabicyclo[3.2.1]octan-3-yl)methyl]-4,5-dichlorophenol Trifluoroacetic Acid], the IC50 on Kv1.3 potassium channel is < 10 µM; against hERG channel it was > 30 µM.
Taken in the same sequence, the figures for `N[C@@H](c1cc(Cl)c(Cl)cc1O)C1CCN(C(=O)[C@H]2CNC(=O)OC2)CC1` (single isomer, unassigned; isomer 1) [Compound 338] were < 0.5 µM and > 30 µM.
Regarding `COC[C@H](O)C(=O)N1CCC([C@@H](N)c2cc(Cl)c(Cl)cc2O)CC1` [Compound 181, (2S)-1-[4-[(R)-amino(4,5-dichloro-2-hydroxyphenyl)methyl]piperidin-1-yl]-2-hydroxy-3-methoxypropan-1-one trifluoroacetic acid], the IC50 was < 0.5 µM at Kv1.3 potassium channel and > 30 µM against hERG channel.
For `NC(c1cc(Cl)c(Cl)cc1O)C1CCN(S(=O)(=O)N2CCCC2)CC1` (centres unmarked) [Compound 45, 2-(amino(1-(pyrrolidin-1-ylsulfonyl)piperidin-4-yl)methyl)-4,5-dichlorophenol Trifluoroacetic Acid], in that order: < 10 µM and < 30 µM.
Taken in the same sequence, the figures for `Cc1cc(O)c([C@H](N)C2CCN(C(=O)[C@H](O)CO)CC2)c(F)c1Cl` [Compound 244, (2R)-1-[4-[(R)-amino(3-chloro-2-fluoro-6-hydroxy-4-methylphenyl)methyl]piperidin-1-yl]-2,3-dihydroxypropan-1-one] were < 0.5 µM and > 30 µM.
For `NC(c1cc(Cl)c(Cl)cc1O)C1CCN(C(=O)C2COC2)CC1` (centres unmarked) [Compound 67, 2-[amino[1-(oxetane-3-carbonyl)piperidin-4-yl]methyl]-4,5-dichlorophenol], in that order: < 0.5 µM and < 30 µM.
On to `Oc1cc(Cl)c(Cl)cc1[C@@H](O)C1CCNCC1` (single isomer, unassigned) [Compound 6], for which the IC50 at Kv1.3 potassium channel was < 10 µM; against hERG channel, > 30 µM.
For `N[C@@H](c1cc(Cl)c(Cl)cc1O)C1CCN(C(=O)[C@H]2CCC(=O)NC2)CC1` (single isomer, unassigned; isomer 1) [Compound 221], in that order: < 0.5 µM and > 30 µM.
As to `N[C@@H](c1cc(Cl)c(Cl)cc1O)C1CCN(c2cc[nH]c(=O)c2)CC1` [Compound 180, 4-[4-[(R)-amino(4,5-dichloro-2-hydroxyphenyl)methyl]piperidin-1-yl]-1,2-dihydropyridin-2-one Trifluoroacetic Acid], the IC50 is < 0.5 µM at Kv1.3 potassium channel and > 30 µM at hERG channel.
Taken in the same sequence, the figures for `N[C@@H](c1cc(Cl)c(Cl)cc1O)C1CCN(C(=O)[C@H]2CC[C@H](O)C2)CC1` (single isomer, unassigned; isomer 1) [Compound 177] were < 10 µM and < 30 µM.
`CN1CC(C(=O)N2CCC([C@@H](N)c3cc(Cl)c(Cl)cc3O)CC2)NCC1=O` (stereo partly drawn) [Compound 300, 5-[4-[(R)-amino(4,5-dichloro-2-hydroxyphenyl)methyl]piperidine-1-carbonyl]-1-methylpiperazin-2-one Trifluoroacetic Acid]: the values for the IC50 at Kv1.3 potassium channel and against hERG channel were < 0.5 µM and > 30 µM, respectively.
For `O=C([C@@H]1CCNC1)N1CCC(Cc2cc(Cl)c(Cl)cc2O)CC1` [Compound 111, 4,5-dichloro-2-([1-[(3R)-pyrrolidine-3-carbonyl]piperidin-4-yl]methyl)phenol Trifluoroacetic Acid], in that order: < 0.5 µM and < 30 µM.
As to `N[C@@H](c1cc(Cl)c(Cl)cc1O)C1CCNCC1` (single isomer, unassigned) [Compound 16, Trifluoroacetic Acid], the IC50 was < 0.5 µM at Kv1.3 potassium channel and > 30 µM against hERG channel.
Taken in the same sequence, the figures for `CO[C@H](CO)C(=O)N1CCC([C@@H](N)c2cc(Cl)c(Cl)cc2O)CC1` [Compound 168, (2R)-1-[4-[(R)-amino(4,5-dichloro-2-hydroxyphenyl)methyl]piperidin-1-yl]-3-hydroxy-2-methoxypropan-1-one trifluoroacetic acid] were < 0.5 µM and > 30 µM.
With `CC(=O)N[C@H](c1cc(Cl)c(Cl)cc1O)C1CCNCC1` (single isomer, unassigned) [Compound 10], the values for the IC50 at Kv1.3 potassium channel and at hERG channel were < 10 µM and > 30 µM, respectively.
Regarding `N[C@@H](c1cc(Cl)c(Cl)cc1O)C1CCN(S(=O)(=O)[C@H]2CCNC2)CC1` (single isomer, unassigned; isomer 2) [Compound 118], the IC50 was < 0.5 µM at Kv1.3 potassium channel and > 30 µM at hERG channel.
Consider `N[C@@H](c1c(O)cc(Cl)c(Cl)c1Cl)C1CCN(C(=O)[C@H](O)CO)CC1` [Compound 188, (R)-1-(4-((R)-amino(2,3,4-trichloro-6-hydroxyphenyl)methyl)piperidin-1-yl)-2,3-dihydroxypropan-1-one Trifluoroacetic Acid], for which the IC50 at Kv1.3 potassium channel is < 10 µM; on hERG channel, > 30 µM.
On to `C[C@H](O)C(=O)N1CCC([C@@H](N)c2cc(Cl)c(Cl)cc2O)CC1` [Compound 102, (S)-1-(4-((R)-amino(4,5-dichloro-2-hydroxyphenyl)methyl)piperidin-1-yl)-2-hydroxypropan-1-one], for which the IC50 is < 0.5 µM at Kv1.3 potassium channel and > 30 µM against hERG channel.
For `CN(C)CC(=O)N1CCC([C@@H](N)c2cc(Cl)c(Cl)cc2O)CC1` [Compound 89, (R)-1-(4-(amino(4,5-dichloro-2-hydroxyphenyl)methyl)piperidin-1-yl)-2-(dimethylamino)ethanone], in that order: < 0.5 µM and > 30 µM.
For `N[C@@H](c1c(O)cc(Cl)c(Cl)c1F)C1CCN(C(=O)[C@H](O)CO)CC1` [Compound 291, (R)-1-(4-((R)-amino(3,4-dichloro-2-fluoro-6-hydroxyphenyl)methyl)piperidin-1-yl)-2,3-dihydroxypropan-1-one], the IC50 is < 0.5 µM at Kv1.3 potassium channel and > 30 µM at hERG channel.
For the compound `CN(C)C(=O)N1CCC(C(N)c2cc(Cl)c(Cl)cc2O)CC1` (centres unmarked) [Compound 46, 4-(amino(4,5-dichloro-2-hydroxyphenyl)methyl)-N,N-dimethylpiperidine-1-carboxamide], the half-inhibitory concentration (IC50) is < 10 µM on Kv1.3 potassium channel and < 30 µM on hERG channel.
As to `C[C@@H](O)[C@H](O)C(=O)N1CCC([C@@H](N)c2cc(Cl)c(Cl)cc2O)CC1` [Compound 208, 1-(4-((R)-amino(4,5-dichloro-2-hydroxyphenyl)methyl)piperidin-1-yl)-2,3-dihydroxybutan-1-one trifluoroacetic acid], the values for the IC50 on Kv1.3 potassium channel and against hERG channel were < 0.5 µM and > 30 µM, respectively.
Taken in the same sequence, the figures for `Cc1cc(O)c([C@H](N)C2CCN(C(=O)c3ccc(=O)[nH]c3)CC2)c(F)c1Cl` [Compound 272, 5-[4-[(R)-amino(3-chloro-2-fluoro-6-hydroxy-4-methylphenyl)methyl]piperidine-1-carbonyl]-1H-pyridin-2-one Trifluoroacetic Acid] were < 0.5 µM and > 30 µM.
Turning to `N[C@@H](CO)C(=O)N1CCC([C@@H](N)c2cc(Cl)c(Cl)cc2O)CC1` [Compound 167, (2S)-2-amino-1-[4-[(R)-amino(4,5-dichloro-2-hydroxyphenyl)methyl]piperidin-1-yl]-3-hydroxypropan-1-one], the IC50 is < 0.5 µM at Kv1.3 potassium channel and > 30 µM against hERG channel.
As for `N[C@@H](c1cc(Cl)c(Cl)cc1O)C1CCN(C(=O)C2CC3(CC(O)C3)C2)CC1` (stereo partly drawn) [Compound 320, 6-[4-[(R)-amino(4,5-dichloro-2-hydroxyphenyl)methyl]piperidine-1-carbonyl]spiro [3.3]heptan-2-ol trifluoroacetic acid], the figures for the IC50 at Kv1.3 potassium channel and at hERG channel were < 10 µM and < 30 µM, respectively.
`N[C@@H](c1cc(Cl)c(Cl)cc1O)C1CCN(C(=O)C2CCNC(=O)C2)CC1` (stereo partly drawn) [Compound 172, 4-[4-[(R)-amino(4,5-dichloro-2-hydroxyphenyl)methyl]piperidine-1-carbonyl] piperidin-2-one trifluoroacetic acid]: the IC50 on Kv1.3 potassium channel was < 10 µM; at hERG channel, > 30 µM.
For `C[C@H](O)[C@@H](N)C(=O)N1CCC([C@@H](N)c2cc(Cl)c(Cl)cc2O)CC1` [Compound 173, (2R,3S)-2-amino-1-(4-((R)-amino(4,5-dichloro-2-hydroxyphenyl)methyl)piperidin-1-yl)-3-hydroxybutan-1-one bis (trifluoroacetic acid)], in that order: < 0.5 µM and > 30 µM.
Taken in the same sequence, the figures for `CC1(O)CC(C(=O)N2CCC([C@@H](N)c3cc(Cl)c(Cl)cc3O)CC2)C1` (stereo partly drawn) [Compound 163, 2-[(R)-amino[1-(3-hydroxy-3-methylcyclo-butanecarbonyl)piperidin-4-yl]methyl]-4,5-dichlorophenol] were < 10 µM and > 30 µM.
For `N[C@@H](c1cc(Cl)c(Cl)cc1O)C1CCN(C(=O)Cc2cn[nH]c2)CC1` [Compound 162, 1-[4-[(R)-amino(4,5-dichloro-2-hydroxyphenyl)methyl]piperidin-1-yl]-2-(1H-pyrazol-4-yl)ethan-1-one trifluoroacetic acid], in that order: < 0.5 µM and > 30 µM.
